Measured values published in patent publication US20050048093A1, “Methods and reagents for the control of infestations of parasites” (priority 2001, published 2005).
Where “and” joins values, the source holds several entries; their conditions need not be identical. Equal values may be shown once.

What was measured:
Type in all cases: in vivo
Varroa destructor [1] = experiment: Inhibition of the reproduction of V. destructor in artificial (gelatine) cells; conditions: for Inhibitory activity in respect of varroa reproduction / Number of offspring per varroa female in the artificial cells treated (Mean) / Number of offspring per varroa female in the artificial cells treated: Example 5; for Inhibitory activity in respect of varroa reproduction: artificial cells, result in words; for Number of offspring per varroa female in the artificial cells treated (Mean) / Number of offspring per varroa female in the artificial cells treated: same procedure as Example 1; for Number of offspring per varroa female in the artificial cells treated (Mean): mean of three replications; for Number of offspring per varroa female in the artificial cells treated: single replications 1-3
Protocol: In Example 1, a chemical composition is made up of a solution of heptadecene in hexane, with a double bond in position 8 and cis configuration ([…]). The cis-8-heptadecene in a solution of hexane causes a reduction in reproduction, ie a reduction in the number of offspring produced by the Varroa destructor mite, raised in a laboratory environment, on bee larvae in gelatine cells. For verification of the activity of cis-8-C17H34, two groups of gelatine cells were prepared, with a diameter of 6.5 mm. In each of the two cells of the first group, 10 […] 100 ng of cis-8-heptadecene was deposited. This group was defined as the treated group. In the cells of the second group, 10 […] active compound was deposited. This group was defined as the control group. The substances were deposited into each cell using a micropipette. The solvent was left to evaporate and then one varroa and one bee larva from natural, just-capped cells were introduced into each cell in each of the groups. The varroa was thus cultivated on the bee larva, during the metamorphosis of the larva, as happens in nature. Cultivation took place at 35° C. and 75% relative humidity. After ten days Oust before the bee reached its adult state), the cells were opened and inspected by microscope and the offspring produced by each varroa female were counted. The experiment described above was conducted four times; in total, approximately 80 cells were used per group. Following the same procedure used in Example 1, a chemical composition made up of a solution of a heptadecene isomer as in Example 1, in this case the isomer with a double bond in position 6 (cis-6-C17H34), and a second composition containing a solution of cis-8-heptadecene (cis-8-C17H34) were applied.

Varroa destructor [2] = experiment: Inhibition of the reproduction of V. destructor via dispensing of cis-8-heptadecene in bee colonies; conditions: for Number of offspring of V. destructor inside the capped cells of Group B (10 μg) / Number of offspring of V. destructor inside the capped cells of Group A (100 μg): changed weekly
Protocol: In Example 3, ten nuclei were prepared, ie bee colonies with a reduced number of individuals, in the order of several thousand. Each nucleus was placed in a hive with dimensions smaller than those of a standard hive. These nuclei were divided into three groups—A and B, each with three nuclei, and C, with four nuclei.
Into each hive, a dispensing mechanism comprising a nylon grid, with a 100 μm mesh, square and with a side measurement of 10 cm, supported by a sheet of aluminium, was introduced. Solutions of cis-8-heptadecene in various concentrations in 100 μl of hexane were placed on each of these grids. The solvent was left to evaporate before each test. Group A was treated with 100 μg of cis-8-C17H34 in 100 μl of hexane, Group B with 10 μg of cis-8-C17H34 in […], and Group C with 100 μl of hexane without the addition of cis-8-C17H34 (control grou). The dispensing mchanism was changed in each hive each week; and treatment lasted for three weeks. At the end of the test, the number of V. destructor individuals present on the adult bees and in the brood cells was determined. The brood cells were removed from the hives, opened and inspected. Finally, the V. destructor individuals killed by the treatment were counted. The numbers of offspring of the V. destructor individuals present in the brood cells were calculated, separately for each developmental stage of the bees, and specifically pink-eyed pupae (pp), black-eyed pupae (pd) and pigmented pupae and adult bees (ppd).

Varroa destructor [3] = experiment: Inhibition of the reproduction of V. destructor in natural cells; conditions: Example 2, 10 days in hive
Protocol: Example 2 was conducted in the same way as Example 1, except for the fact that the V. destructor mite was cultivated on bee larvae in natural cells from a beehive. In this example, too, the effect of 8-heptadecene on the reduction in the mean number of offspring produced by a female V. destructor in cells of natural honeycomb, kept in the hive, was verified.
For verification of the activity of cis-8-C17H34, two groups of natural cells were prepared. In the cells of the first group, referred to as the treated group, 1 μl of acetone containing 100 ng of cis-8-heptadecene was deposited. In the cells of the second group, the control group, 1 μl of the solvent alone, ie acetone, was deposited. The natural cells were cells just capped with honeycomb taken from infested hives and the product was deposited via injection of the solution using a microsyringe through the cell cap. Following treatment, the honeycomb was returned to the hive from which it was taken. After ten days, the honeycombs used for the experiment were brought to the laboratory; both the treated and control cells were opened and inspected. In the infested cells, the mean number of offspring produced by each varroa was counted. The experiment was replicated six times: in total, approximately 140 infested cells were examined for each group.

Row | Structure (SMILES) | Inhibitory activity in respect of varroa reproduction (Varroa destructor [1]) | Number of offspring per varroa female in the artificial cells treated (Mean) (Varroa destructor [1]) | Number of offspring per varroa female in the artificial cells treated (Varroa destructor [1]; listed as cis-6-C17H34) | Number of offspring per varroa female in the artificial cells treated with cis-8-heptadecene (Mean) (Varroa destructor [1]; Example 1, 100 ng per gelatine cell, 10 days, mean of four replications) | Number of offspring per varroa female in the artificial cells treated (Varroa destructor [1]; listed as cis-8-C17H34) | Number of offspring of V. destructor inside the capped cells of Group B (10 μg) (Varroa destructor [2]; 10 μg per dispenser, three weeks, PD: black-eyed pupae) | Number of offspring of V. destructor inside the capped cells of Group B (10 μg) (Varroa destructor [2]; 10 μg per dispenser, three weeks, PDD [sic]: pigmented pupae et adults) | Number of offspring of V. destructor inside the capped cells of Group B (10 μg) (Varroa destructor [2]; 10 μg per dispenser, three weeks, PP: pink-eyed pupae) | Percentage distribution of V. destructor in Group B (10 μg): Varroa in the reproductive phase (Varroa destructor [2]; 10 μg per dispenser, three weeks, adult female varroa in brood cells) [Percentage] | Percentage distribution of V. destructor in Group B (10 μg): Varroa in the phoretic phase (Varroa destructor [2]; 10 μg per dispenser, three weeks, adult female varroa on adult bees) [Percentage] | Number of offspring of V. destructor inside the capped cells of Group A (100 μg) (Varroa destructor [2]; 100 μg per dispenser, three weeks, PD: black-eyed pupae) | Number of offspring of V. destructor inside the capped cells of Group A (100 μg) (Varroa destructor [2]; 100 μg per dispenser, three weeks, PDD [sic]: pigmented pupae et adults) | Number of offspring of V. destructor inside the capped cells of Group A (100 μg) (Varroa destructor [2]; 100 μg per dispenser, three weeks, PP: pink-eyed pupae) | Percentage distribution of V. destructor in Group A (100 μg): Varroa in the reproductive phase (Varroa destructor [2]; 100 μg per dispenser, three weeks, adult female varroa in brood cells) [Percentage] | Percentage distribution of V. destructor in Group A (100 μg): Varroa in the phoretic phase (Varroa destructor [2]; 100 μg per dispenser, three weeks, adult female varroa on adult bees) [Percentage] | Reproduction of V. destructor in the cells of the hives (Varroa destructor [2]; Groups A (100 μg) and B (10 μg), as from the black-eyed pupa stage (pd), result in words) | Number of offspring per varroa female in the natural cells treated with cis-8-heptadecene (Varroa destructor [3]; 100 ng in 1 μl acetone per natural capped cell, single replications 1-6) | Number of offspring per varroa female in the natural cells treated with cis-8-heptadecene (Mean) (Varroa destructor [3]; 100 ng per natural capped cell, mean of six replications)
1 | CCCCC/C=C\CCCCCCCCCC [cis-6-heptadecene] | demonstrated inhibitory activity | 2.1 | 2.4 and 2.3 and 1.7 | – | – | – | – | – | – | – | – | – | – | – | – | – | – | –
2 | CCCCCCC/C=C\CCCCCCCC [cis-8-heptadecene] | demonstrated inhibitory activity | 1.9 | – | 1.7 | 2.0 and 1.5 | 2.65 | 3.20 | 2 | 60 | 40 | 2.63 | 3.29 | 2 | 50 | 50 | reduction, albeit modest | 3.2 and 2.5 and 3.6 and 3.1 and 3.7 | 3.2
